Patent publication US7678913B2, “Ureas as factor Xa inhibitors” (Portola Pharmaceuticals, Inc., priority 2004, dated 2010)

These compounds were tested against T1, human plasma protein factor Xa (Homo sapiens, UniProt P00742) (assay: Factor Xa IC50 determination (cleavage of chromogenic substrate S-2765)). Settings: fXa 1 nM, S-2765 100 μM, Tris buffered saline pH 7.4, room temperature.
T1 construct: measure proteolytic activity of the enzyme (factor Xa); purchased Haematologic Technologies (Essex Junction, Vt.); host or cells: human plasma
T1 sequence (P00742 235-488 limits assumed): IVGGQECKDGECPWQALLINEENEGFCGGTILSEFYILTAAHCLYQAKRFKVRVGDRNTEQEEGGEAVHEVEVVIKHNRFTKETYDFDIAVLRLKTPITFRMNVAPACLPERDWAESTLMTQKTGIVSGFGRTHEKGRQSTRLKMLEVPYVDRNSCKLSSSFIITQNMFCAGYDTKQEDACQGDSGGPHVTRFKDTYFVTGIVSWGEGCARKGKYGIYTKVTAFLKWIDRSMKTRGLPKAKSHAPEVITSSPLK
T1 sequence (P00742 41-179 partner limits assumed): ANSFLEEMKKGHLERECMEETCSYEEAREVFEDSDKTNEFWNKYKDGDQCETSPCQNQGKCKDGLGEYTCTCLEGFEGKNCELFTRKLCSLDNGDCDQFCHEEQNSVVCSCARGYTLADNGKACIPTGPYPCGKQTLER
Type: biochemical
Text: This example illustrates methods for evaluating the compounds of the invention, along with results obtained for such assays. The in vitro and in vivo Factor Xa isoform activities of the inventive compounds can be determined by various procedures known in the art, such as a test for their ability to inhibit the activity of the Factor Xa isoform. […] The IC50 value is the concentration (in nM) of the compound required to provide 50% inhibition of Factor Xa isoform.
An in vitro assay for detecting and measuring inhibition activity against Factor Xa is as follows:
• The substrate S-2765 (Z-D-Arg-Gly-Arg-pNA.HCl) was obtained from Diapharma (West Chester, Ohio). Enzyme: • The human plasma protein factor Xa was purchased from Haematologic Technologies (Essex Junction, Vt.). Methods
All assays, which are performed in 96-well microtiter plates, measure proteolytic activity of the enzyme (factor Xa) by following cleavage of paranitroanilide substrate. The assay buffer used for proteolytic assays was Tris buffered saline (20 mM Tris, 150 mM NaCl, 5 mM CaCl2, 0.1% Bovine serum albumin (BSA), 5% Dimethly Sulfoxide (DMSO) pH 7.4). In a 96-well microtiter plate, inhibitor was serially diluted to give a range of concentrations from 0.01 nM to 10 μM (final). Duplicate sets of wells were assayed and control wells without inhibitor were included. Enzyme was added to each well,(fXa concentration=1nM), the plate was shaken for 5 seconds and then incubated for 5 minutes at room temperature. S2765 was added (100 μM final) and the plate was shaken for 5 seconds (final liquid volume in each well was 200 μl). The degree of substrate hydrolysis was measured at 405 nm on a Thermomax plate reader (Molecular Devices, Sunnyvale, Calif.) for 2 minutes. The initial velocities (mOD/min), for each range of inhibitor concentrations, were fitted to a four parameter equation using Softmax data analysis software. The parameter C, derived from the resulting curve-fit, corresponded to the concentration for half maximal inhibition (IC50).

SMILES	IC50
COc1ccccc1C(NC(=O)Nc1ccc(Cl)cc1)C(=O)N1CCC(N2CCN(C)CC2=O)CC1 (stereo not drawn) [Example 151, 4-(4-methyl-2-piperazinon-1-yl)piperidin-1-yl-2-(2-methoxyphenyl)-2-(4-chlorophenylaminocarbonylamino)-acetamide]	≥ 0.5 µM
CCOC(=O)C1CCN(C(=O)CC(NC(=O)Nc2ccc(Cl)cc2)C(=O)Nc2ccc(C3=NCCN3C)cc2)CC1 (stereo not drawn) [Example 67]	≥ 0.5 µM
Cc1ccccc1C(NC(=O)Nc1ccc(Cl)cc1)C(=O)NC1CCN(C(C)C)CC1 (stereo not drawn) [Example 90, N-(1-isopropylpiperidin-4-yl)-2-(2-methylphenyl)-2-(4-chlorophenylamino-carbonylamino)-acetamide]	≥ 0.5 µM
CN1CCN=C1c1ccc(NC(=O)[C@@H](CC(=O)OCc2ccccc2)NC(=O)Nc2ccc(Cl)cc2)cc1 [Example 61, (2R) N-[4-(1-methyl-4,5-dihydro-1H-imidazol-2-yl)phenyl]-2-benzyloxycarbonylmethyl-2-(4-chlorophenylaminocarbonylamino)-acetamide]	0.1 to 0.5 µM
CN1CCN=C1c1ccc(NC(=O)C(NC(=O)Nc2ccc(Cl)cc2)(c2ccccc2)c2ccccc2)cc1 [Example 14, N-[4-(1-methyl-4,5-dihydro-1H-imidazol-2-yl)phenyl]-2,2-diphenyl-2-(4-chlorophenylaminocarbonylamino)-acetamide]	≥ 0.5 µM
CN1CCN=C1c1ccc(NC(=O)CNC(=O)Nc2ccc(Cl)cc2)cc1 [Example 1, N-[4-(1-methyl-4,5-dihydro-1H-imidazol-2-yl)phenyl]-2-(4-chlorophenylaminocarbonylamino)-acetamide]	≤ 0.1 µM
CN(C)Cc1ccccc1-c1ccc(NC(=O)C(NC(=O)Nc2ccc(Cl)cc2)c2ccccc2F)cc1 (stereo not drawn) [Example 55, N-[4-(2-dimethylaminomethyl-phenyl)phenyl]-2-(2-fluorophenyl)-2-(4-chlorophenylaminocarbonylamino)-acetamide]	≤ 0.1 µM
CN1CCN=C1c1ccc(NC(=O)C(NC(=O)Nc2ccc(Cl)cc2)c2ccccc2Oc2ccccc2)cc1 (stereo not drawn) [Example 124, N-[4-(1-methyl-4,5-dihydro-1H-imidazol-2-yl)phenyl]-2-(2-phenoxyphenyl)-2-(4-chlorophenylaminocarbonylamino)-acetamide]	≤ 0.1 µM
O=C(Nc1ccc(Cl)cc1)NC(C(=O)Nc1ccc(-c2ccncc2)cc1)c1ccccc1F (stereo not drawn) [Example 49, N-[4-(pyridin-4-yl)phenyl]-2-(2-fluorophenyl)-2-(4-chlorophenylaminocarbonylamino)-acetamide]	0.1 to 0.5 µM
CN1CCN=C1c1ccc(NC(=O)C(CC(=O)N2CCCCC2)NC(=O)Nc2ccc(Cl)cc2)cc1 (stereo not drawn) [Example 64, N-[4-(1-methyl-4,5-dihydro-1H-imidazol-2-yl)phenyl]-2-(piperidin-1-ylcarbonylmethyl)-2-(4-chlorophenylaminocarbonylamino)-acetamide]	≥ 0.5 µM
N=C(c1ccc(NC(=O)C(NC(=O)Nc2ccc(Cl)cc2)c2ccccc2Cl)cc1)N1CCCC1 (stereo not drawn) [Example 101]	≤ 0.1 µM
Cc1ccccc1C(NC(=O)Nc1ccc(Cl)cc1)C(=O)N1CCC(N2CCOCC2=O)CC1 (stereo not drawn) [Example 147, 4-(3-morpholinon-4-yl)piperidin-1-yl-2-(2-methylphenyl)-2-(4-chlorophenylaminocarbonylamino)-acetamide]	0.1 to 0.5 µM
COc1ccccc1C(NC(=O)Nc1ccc(Cl)cc1)C(=O)Nc1ccc(C2=NCCN2C)cc1 (stereo not drawn) [Example 106, N-[4-(1-methyl-4,5-dihydro-1H-imidazol-2-yl)phenyl]-2-(2-methoxyphenyl)-2-(4-chlorophenylaminocarbonylamino)-acetamide]	≤ 0.1 µM
C#CCN(C)C(=N)c1ccc(NC(=O)C(NC(=O)Nc2ccc(Cl)cc2)c2ccccc2)cc1 (stereo not drawn) [Example 27, N-[4-(N-methyl-N-propargylaminoimino)phenyl]-2-phenyl-2-(4-chlorophenylaminocarbonylamino)-acetamide]	≤ 0.1 µM
COc1ccccc1C(NC(=O)Nc1ccc(Cl)cc1)C(=O)NCC1CCN(c2ccncc2)CC1 (stereo not drawn) [Example 108, N-[1-(pyridin-4-yl)piperidin-4-yl]methyl-2-(2-methoxyphenyl)-2-(4-chlorophenylaminocarbonylamino)-acetamide]	≤ 0.1 µM
CN1CCN=C1c1ccc(NC(=O)C(Cc2ccccc2)NC(=O)Nc2ccc(Cl)cc2)cc1 (stereo not drawn) [Example 5, N-[4-(1-methyl-4,5-dihydro-1H-imidazol-2-yl)phenyl]-2-benzyl-2-(4-chlorophenylaminocarbonylamino)-acetamide]	≤ 0.1 µM
N=C(c1ccc(NC(=O)C(NC(=O)Nc2ccc(Cl)cc2)c2cccs2)cc1)N1CCCC1 (stereo not drawn) [Example 21]	≤ 0.1 µM
CN1CCN=C1c1ccc(NC(=O)C(NC(=O)Nc2ccc(Br)cc2)c2cccs2)cc1 (stereo not drawn) [Example 30, N-[4-(1-methyl-4,5-dihydro-1H-imidazol-2-yl)phenyl]-2-(2-thienyl)-2-(4-bromophenylaminocarbonylamino)-acetamide]	≤ 0.1 µM
CN1CCN=C1c1ccc(NC(=O)C(CC(=O)Nc2ccccc2)NC(=O)Nc2ccc(Cl)cc2)cc1 (stereo not drawn) [Example 73, N-[4-(1-methyl-4,5-dihydro-1H-imidazol-2-yl)phenyl]-2-(phenylamino-carbonylmethyl)-2-(4-chlorophenylaminocarbonylamino)-acetamide]	0.1 to 0.5 µM

Now from value to compound:

IC50	SMILES
≤ 0.1 µM	N=C(c1ccc(NC(=O)C(NC(=O)Nc2ccc(Cl)cc2)c2ccccc2)cc1)N1CCCC1 (stereo not drawn) [Example 29]
≤ 0.1 µM	O=C(Nc1ccc(Cl)s1)N[C@H](C(=O)Nc1ccc(-n2ccccc2=O)cc1)c1ccccc1 [Example 139, (2S) N-[4-(2-pyridon-1-yl)phenyl]-2-phenyl-2-(2-chlorothiophen-5-ylaminocarbonylamino)-acetamide]
≤ 0.1 µM	Cc1ccccc1C(NC(=O)Nc1ccc(Cl)cc1)C(=O)Nc1ccc(C2=NCCN2C)cc1 (stereo not drawn) [Example 84, N-[4-(1-methyl-4,5-dihydro-1H-imidazol-2-yl)phenyl]-2-(2-methylphenyl)-2-(4-chlorophenylaminocarbonylamino)-acetamide]
≤ 0.1 µM	C=CCN(C)C(=N)c1ccc(NC(=O)C(NC(=O)Nc2ccc(Cl)cc2)c2ccccc2)c(F)c1 (stereo not drawn) [Example 35, N-[4-(N-methyl-N-allylaminoimino)-2-fluorophenyl]-2-phenyl-2-(4-chlorophenylaminocarbonylamino)-acetamide]
≤ 0.1 µM	COc1ccccc1C(NC(=O)Nc1ccc(Cl)cc1)C(=O)N1CCC(N2CCOCC2=O)CC1 (stereo not drawn) [Example 148, 4-(3-morpholinon-4-yl)piperidin-1-yl-2-(2-methoxyphenyl)-2-(4-chlorophenylaminocarbonylamino)-acetamide]
≤ 0.1 µM	COc1ccccc1C(NC(=O)Nc1ccc(Cl)cc1)C(=O)Nc1ccc(C(=N)N(C)C)cc1 (stereo not drawn) [Example 112, N-[4-(dimethylaminoimino)phenyl]-2-(2-methoxyphenyl)-2-(4-chlorophenylaminocarbonylamino)-acetamide]
≤ 0.1 µM	N=C(c1ccc(NC(=O)C(NC(=O)Nc2ccc(Cl)cc2)c2ccccc2)c(F)c1)N1CCCC1 (stereo not drawn) [Example 38, N-[4-(pyrrolidin-1-ylimino)-2-fluorophenyl]-2-phenyl-2-(4-chlorophenylaminocarbonylamino)-acetamide]
≤ 0.1 µM	CN1CCN=C1c1ccc(NC(=O)C(NC(=O)Nc2ccc(Cl)cc2)c2ccsc2)cc1 (stereo not drawn) [Example 13, N-[4-(1-methyl-4,5-dihydro-1H-imidazol-2-yl)phenyl]-2-(3-thienyl)-2-(4-chlorophenylaminocarbonylamino)-acetamide]
≤ 0.1 µM	N=C(c1ccc(NC(=O)C(NC(=O)Nc2ccc(Cl)cc2)c2ccccc2F)cc1)N1CCCC1 (stereo not drawn) [Example 41]
≤ 0.1 µM	Cc1ccccc1C(NC(=O)Nc1ccc(Cl)cc1)C(=O)Nc1ccc(C(=N)N2CCCC2)cc1 (stereo not drawn) [Example 87]
≤ 0.1 µM	COc1ccccc1C(NC(=O)Nc1ccc(Cl)cc1)C(=O)Nc1ccc(C(=N)N2CCCC2)cc1 (stereo not drawn) [Example 113]
≤ 0.1 µM	COc1ccccc1C(NC(=O)Nc1ccc(Cl)cc1)C(=O)N1CCN(C2CCCNCC2)CC1 (stereo not drawn) [Example 152, 4-(homopiperidin-4-yl)piperazin-1-yl-2-(2-methoxyphenyl)-2-(4-chlorophenylaminocarbonylamino)-acetamide]
≤ 0.1 µM	O=C(Nc1ccc(Cl)cc1)NC(C(=O)Nc1ccc(-c2cccc[n+]2[O-])cc1)c1ccccc1Cl (stereo not drawn) [Example 99, N-[4-(N-oxo-pyridin-2-yl)phenyl]-2-(2-chlorophenyl)-2-(4-chlorophenylaminocarbonylamino)-acetamide]
≤ 0.1 µM	CN1CCN=C1c1ccc(N2C(=O)C(NC(=O)Nc3ccc(Cl)cc3)Cc3ccccc32)cc1 (stereo not drawn) [Example 136, 1-[4-(1-methyl-4,5-dihyrdo-1H-imidazol-2-yl)phenyl]-3-(4-chlorophenylaminocarbonylamino)-3,4-dihydroquinolin-2-one]
